Results reported in patent EP0810207A1, “Bis-ortho-substituted benzoylguanidines, process for their preparation, their use as medicament or diagnostic agent and medicaments containing them” (HOECHST AKTIENGESELLSCHAFT, priority 1996, dated 1997).
Counter-ions that a name gives are not always drawn.

Biological target: T1, Na^+/H^+-Exchangers von Kaninchenerythrocyten (Oryctolagus cuniculus, UniProt P23791)
T1 construct: den Na^+-Influx in die Erythrocyten via Na^+/H^+-Austausch flammenphotometrisch bestimmen zu können; from tissue; host or cells: Erythrocytes from ear-artery blood of cholesterol-fed New Zealand White rabbits
T1 sequence (P23791 whole entry): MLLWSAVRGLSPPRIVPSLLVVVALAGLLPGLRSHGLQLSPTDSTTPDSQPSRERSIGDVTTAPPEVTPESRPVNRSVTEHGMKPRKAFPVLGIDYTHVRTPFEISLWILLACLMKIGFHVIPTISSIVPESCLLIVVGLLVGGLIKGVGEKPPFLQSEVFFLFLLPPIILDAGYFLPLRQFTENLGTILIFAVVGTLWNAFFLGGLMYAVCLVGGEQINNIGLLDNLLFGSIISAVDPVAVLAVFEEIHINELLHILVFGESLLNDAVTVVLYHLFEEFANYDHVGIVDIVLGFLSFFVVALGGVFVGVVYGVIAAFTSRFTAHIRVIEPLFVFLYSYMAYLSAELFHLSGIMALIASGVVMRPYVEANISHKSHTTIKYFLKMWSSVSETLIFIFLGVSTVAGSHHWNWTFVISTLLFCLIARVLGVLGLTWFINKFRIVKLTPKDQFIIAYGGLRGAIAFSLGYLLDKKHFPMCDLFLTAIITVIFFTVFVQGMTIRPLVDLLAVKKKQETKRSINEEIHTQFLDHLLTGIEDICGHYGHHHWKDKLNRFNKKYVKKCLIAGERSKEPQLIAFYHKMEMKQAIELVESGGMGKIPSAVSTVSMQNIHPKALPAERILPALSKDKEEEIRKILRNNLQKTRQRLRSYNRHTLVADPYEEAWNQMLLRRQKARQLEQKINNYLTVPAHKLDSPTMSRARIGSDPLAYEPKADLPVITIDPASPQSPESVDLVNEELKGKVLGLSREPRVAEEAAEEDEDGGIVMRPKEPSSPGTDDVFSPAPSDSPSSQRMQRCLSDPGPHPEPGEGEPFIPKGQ
Experiment: Inhibition of the Na+/H+ exchanger of rabbit erythrocytes (amiloride-sensitive sodium influx, flame photometry)
Assay type: cell-based, Kaninchen
Conditions: hyperosmolar salt-sucrose medium, pH 7,4, 37°C, read-out: IC50 Inhibition des Na^+/H^+-Exchangers
Text: Inhibition des Na^+/H^+-Exchangers von Kaninchenerythrocyten Weiße Neuseeland-Kaninchen (Ivanovas) erhielten eine Standard-Diät mit 2% Cholesterin für sechs Wochen, um den Na^+/H^+-Austausch zu aktivieren und so den Na^+-Influx in die Erythrocyten via Na^+/H^+-Austausch flammenphotometrisch bestimmen zu können. Das Blut wurde den Ohrarterien entnommen und durch 25 IE Kalium-Heparin ungerinnbar gemacht. Ein Teil jeder Probe wurde zur Doppelbestimmung des Hämatokrits durch Zentrifugieren benutzt. Aliquots von jeweils 100 µl dienten zur Messung des Na^+-Ausgangsgehalts der Erythrocyten.
Um den Amilorid-sensitiven Natrium-Influx zu bestimmen, wurden 100 µl jeder Blutprobe in jeweils 5 ml eines hyperosmolaren Salz-Sucrose-Mediums (mmol/l: 140 NaCl, 3 KCl, 150 Sucrose, 0,1 Ouabain, 20 Tris-hydroxymethylaminomethan) bei pH 7,4 und 37°C inkubiert. Die Erythrocyten wurden danach dreimal mit eiskalter MgCl2-Ouabain-Lösung (mmol/l: 112 MgCl2, 0,1 Ouabain) gewaschen und in 2,0 ml destilliertem Wasser hämolysiert. Der intrazelluläre Natriumgehalt wurde flammenphotometrisch bestimmt.
Der Na^+-Nettoinflux wurde aus der Differenz zwischen Natrium-Ausgangswerten und dem Natriumgehalt der Erythrocyten nach Inkubation errechnet. Der Amilorid-hemmbare Natrium-Influx ergab sich aus der Differenz des Natriumgehalts der Erythrocyten nach Inkubation mit und ohne Amilorid 3 x 10^-4 mol/l. Auf diese Weise wurde auch bei den erfindungsgemäßen Verbindungen verfahren.

| SMILES | IC50 [µM] |
| --- | --- |
| N=C(N)NC(=O)c1c(Cl)cccc1Cl [Beispiel 1, 2,6-Dichlor-benzoylguanidin-hydrochlorid] | 10 |
| COc1ccc(C(F)(F)F)c(OC)c1C(=O)N=C(N)N [Beispiel 6, 3-Trifluormethyl-2,6-dimethoxy-benzoylguanidin-hydrochlorid] | > 10 |
| COc1ccc(Cl)c(OC)c1C(=O)N=C(N)N [Beispiel 2, 3-Chlor-2,6-dimethoxy-benzoylguanidin-hydrochlorid] | 8.5 |
| NC(N)=NC(=O)c1c(F)c(F)c(O)c(F)c1F [Beispiel 3, 4-Hydroxy-2,3,5,6-tetrafluor-benzoylguanidin-hydrochlorid] | 0.3 |
| NC(N)=NC(=O)c1c(F)cccc1F [Beispiel 4, 2,6-Difluor-benzoylguanidin-hydrochlorid] | > 10 |
| NC(N)=NC(=O)c1c(F)cccc1C(F)(F)F [Beispiel 5, 2-Fluor-6-trifluormethyl-benzoylguanidin-hydrochlorid] | 10 |
